Converted amounts (≈) assume the structure as drawn.
Test system: L1210
Assay: Cytotoxicity against mouse L1210 cells
Type: functional, cell-based

`CC(=O)OC[C@]12CC[C@H]3[C@@H](C[C@@H](O)[C@@]4(O)C[C@@H](O)CC[C@]34C)[C@@H]1[C@H](O)C[C@@H]2[C@H](C)CCCC(C)C` [DENDRONESTEROL B] showed an IC50 of 5.2 µg/mL (≈ 10.5 µM).

Source: ChEMBL document CHEMBL1154581, “Polyhydroxylated sterols from the octocoral Dendronephthya gigantea” (J Nat Prod, 2000)
